Reference: patent US20020040062A1, “Protein kinase C activators and their use in decreasing expression of cell antigens” (The Trustees of Columbia University, priority 1993, published 2002)
Where two headings read alike, the source gives them in different places. Marks after values point to notes of the source that are not given here.

Tests used:
[1] = system: c-erbB-2; experiment: FACS analysis of c-erbB-2 surface expression in T47D cells; format: cell-based, human; settings: 72 hr; for c-erbB-2 level of upregulation versus untreated control cells (equivalent to 1.0) / Antigenic Expression (MFI) c-erbB-2: 0.1 μg/ml TPA or MEZ; for c-erbB-2 level of upregulation versus untreated control cells (equivalent to 1.0): presence or absence of 0.1 μg/ml H-7; for Antigenic Expression (MFI) c-erbB-2: presence or absence of 0.1 μg/ml H-7, FACStar
Excerpt: (§1) IgG1 murine monoclonal antibody Cu18 and Cu46 recognize two different epitopes of a highly restricted breast carcinoma associated glycoprotein of Mr 225,000 to 250,000 (BCA 225). This TAA is expressed intracytoplasmically and on the membrane of 94% of breast tumors tested and in the T47D human breast carcinoma cell line. BCA 225 is shed into the culture medium by T47D cells and into the sera of breast cancer patients. IgG2a monoclonal antibody L243 (anti HLA Class II-DR) recognizes a monomorphic HLA Class II-DR-α epitope (ATCC M355). Monoclonal antibody CL203.4 [40], which recognizes ICAM-I, was kindly provided by Dr. S. Ferrone, New York Medical College, NY. The c-erbB-2 monoclonal antibody which recognizes the extracellular domain of c-erbB-2 was obtained from Triton Biosciences, Inc., Alamedia, Calif. Monoclonal antibodies Cu18 and Cu46 were used at 0.05 μg/ml and monoclonal antibodies interacting with HLA Class II-DR, ICAM-1 and c-erbB-2 were used at 10 μg/ml. For each experiment, isotype matched control backgrounds (IgG for Cu18, Cu46 and ICAM-1, IgG2a for HLA Class Ii and IgG2b for c-erbB-2) were subtracted from the experimental results. Background from antimouse IgG FITC antibody was also subtracted from experimental results. Applicants never observed backgrounds higher than 2% of total cells for isotypic mouse IgG or higher than 5% for antimouse IgG FITC.
(§2) T47D cells treated with the various compounds were analyzed by flow cytometry using appropriate monoclonal antibody concentrations as described previously. Briefly, 1×10^5 cells were incubated with the test antibody for 30 min at 4° C., washed 3× with PBS and incubated with a goat a mouse F (ab)2 FITC conjugated test antibody at a 1:40 dilution for 30 min at 4° C. Cells were then washed 3× with PBS and analyzed on a FACStar (Beckon Dickinson, Mountain View, Calif.) or a Coulter Epics IV FACS (Coulter, Hialeah, Fla.). Results are expressed as mean fluorescence intensity (MFI) units which were determined as described previously. MFI=(mean channel fluorescence in fluorescence positive antibody-binding cells×% of fluorescence positive antibody-binding cells)−(mean channel fluorescence in unstained cells×% of fluorescence positive cells in the unstained population). All studies were performed a minimum of three or four times with duplicate samples in each experiment. Replicate samples within individual experiments varied by ≦10% and variation between experiments were generally ≦20%.

[2] = system: ICAM-1; experiment: FACS analysis of ICAM-1 surface expression in T47D cells; format: cell-based, human; settings: 72 hr; for ICAM-1 level of upregulation versus untreated control cells (equivalent to 1.0): presence or absence of 0.1 μg/ml H-7; for ICAM-1 relative increase in expression versus untreated controls (equivalent to 1.0): presence or absence of 1.0 μg/ml H-7
Excerpt: as §1, §2

[3] = system: T47D cells; experiment: Dose-range and time-course of antigenic enhancement in T47D cells and effect of H-7; format: cell-based, human
Experimental: as §2, with “experiment.” for “experiment. Replicate samples within individual experiments varied by ≦10% and variation between experiments were generally ≦20%.”

[4] = system: MoAb K56; experiment: FACS analysis of MoAb K56 binding in WiDr human colon carcinoma cells; format: cell-based
Experimental: Cells were plated in 10 cm plates, media was changed 24 hours later with no addition (control) or addition of the indicated compounds and cells were incubated at 37° C. for the indicated time (72 or 96 hours). Cells were resuspended using 10× EDTA and antigen expression was determined as described (Leon, Mesa-Tejada, Gutierrez, Estabrook, Greiner, Schlom & Fisher: Anticancer Res. 9:1639-1648, 1989; Leon, Gutierrez, Jiang, Estabrook, Waxman & Fisher: Cancer Immunol. Immmunother. 35:315-324, 1992).

[5] = system: MoAb K56; experiment: FACS analysis of MoAb K56 binding in CBS human colon carcinoma cells; format: cell-based; settings: 96 hours
Experimental: (§3) Cells were plated in 10 cm plates, media was changed 24 hours later with no addition (control) or addition of the indicated compounds and cells were incubated at 37° C. for 96 hours. Cells were resuspended using 10× EDTA and antigen expression was determined as described (Leon, Mesa-Tejada, Gutierrez, Estabrook, Breiner, Schlom & Fisher: Anticancer Res. 9:1639-1648, 1989; Leon, Gutierrez, Jiang, Estabrook, Waxman & Fisher: Cancer Immuno. Immunother. 35:315-324 1992).

[6] = system: CA19.9; experiment: FACS analysis of CA19.9 (MoAb B67.4) in CBS human colon carcinoma cells; format: cell-based; settings: 96 hours
Experimental: as §3

[7] = 0.1 μg/ml TPA or MEZ, presence or absence of 0.1 μg/ml H-7, FACStar
[8] = 500 units/ml IFN-β or 50 units/ml IFN-γ
[9] = 500 units/ml IFN-β or 50 units/ml IFN-γ, presence or absence of 1.0 μg/ml H-7, Coulter Epics IV FACS
[10] = 72 Hour Treatment, MEZ 100 ng/ml, IFN-γ 100 U/ml
[11] = 96 Hour Treatment, MEZ 100 ng/ml, IFN-γ 100 U/ml
[12] = T47D cells, preliminary studies, data not shown

Molecule: CC1CNCCN1S(=O)(=O)c1cccc2cnccc12.Cl.Cl (centres unmarked) [H-7, 1-(5-isoquinolinesulfonyl)-2-methylpiperazine dihydrochloride]
- c-erbB-2 level of upregulation versus untreated control cells (equivalent to 1.0) [1]: (1.0)
- Antigenic Expression (MFI) c-erbB-2 [1]: 7,045 MFI
- ICAM-1 level of upregulation versus untreated control cells (equivalent to 1.0) ([2]; 0.1 μg/ml TPA or MEZ): (1.0)
- Antigenic Expression (MFI) ICAM-1 [2, 7]: 21,538 MFI
- ICAM-1 relative increase in expression versus untreated controls (equivalent to 1.0) [2, 8]: 1.0
- Antigenic Expression (MFI) ICAM-1 [2, 9]: 54,080 MFI
- effect of H-7 on enhancement of BCA 225, HLA Class II antigens and ICAM-1 expression by IFN-β or IFN-γ ([3]; T47D cells, 1.0 μg/ml H-7): did not inhibit
- effect of H-7 on increased antigenic expression induced by TPA, MEZ or ADMB ([3]; T47D cells, simultaneous exposure to 0.1 μg/ml H-7): inhibited

Molecule: C=C(C)[C@@]12O[C@@]3(c4ccccc4)O[C@@H]1[C@@H]1[C@@H]4O[C@]4(CO)[C@@H](O)[C@]4(O)C(=O)C(C)=C[C@H]4[C@@]1(O3)[C@H](C)[C@H]2OC(=O)/C=C/C=C/c1ccccc1 [MEZ, mezerein]
- c-erbB-2 level of upregulation versus untreated control cells (equivalent to 1.0) [1]: (2.6)
- Antigenic Expression (MFI) c-erbB-2 [1]: 18,385 MFI
- efficacy of upregulation of c-erbB-2 (fold-change in MFI, FIG. 2) ([1]; 0.1 μg/ml of ADMB, TPA or MEZ): most effective PKC activator tested
- ICAM-1 level of upregulation versus untreated control cells (equivalent to 1.0) ([2]; 0.1 μg/ml TPA or MEZ): (4.1)
- Antigenic Expression (MFI) ICAM-1 [2, 7]: 85,745 MFI
- Monoclonal Antibody Binding (MFI) MoAb K56 [4, 10]: 964* MFI
- Monoclonal Antibody Binding (MFI) MoAb K56 [4, 11]: 1104 MFI
- Monoclonal Antibody Binding (MFI) MoAb K56 ([5]; MEZ 1100 ng/ml, IFN-γ 100 U/ml): 3002* MFI
- Monoclonal Antibody Binding (MFI) MoAb B67.4 (CA19.9) ([6]; MEZ 1100 ng/ml, IFN-γ 100 U/ml): 3288* MFI
- most effective dose inducing upregulation of BCA 225, HLA Class II antigens, ICAM-1 and c-erbB-2 [3, 12]: 0.1 µg/mL

Molecule: CCCCCCCCCCCCCC(=O)O[C@@H]1[C@@H](C)[C@@]2(O)[C@@H](C=C(CO)C[C@]3(O)C(=O)C(C)=C[C@@H]23)[C@H]2C(C)(C)[C@]12OC(C)=O [TPA, 12-0-tetradecanoyl-phorbol-13-acetate]
- c-erbB-2 level of upregulation versus untreated control cells (equivalent to 1.0) [1]: (2.3)
- Antigenic Expression (MFI) c-erbB-2 [1]: 16,100 MFI
- ICAM-1 level of upregulation versus untreated control cells (equivalent to 1.0) ([2]; 0.1 μg/ml TPA or MEZ): (3.0)
- Antigenic Expression (MFI) ICAM-1 [2, 7]: 63,175 MFI
- most effective dose inducing upregulation of BCA 225, HLA Class II antigens, ICAM-1 and c-erbB-2 [3]: 0.1 µg/mL

Molecule: CCCCCCCCCCN(C)c1cc(CO)cc(NC(C)=O)c1 [ADMB, 3-(N-acetylamino)-5-(N-decyl-N-methylamino)-benzyl alcohol]
- Monoclonal Antibody Binding (MFI) MoAb K56 ([4]; 72 Hour Treatment, ADMB 0.01 μg/ml): 844 MFI
- Monoclonal Antibody Binding (MFI) MoAb K56 ([4]; 72 Hour Treatment, ADMB 0.1 μg/ml): 715 MFI
- Monoclonal Antibody Binding (MFI) MoAb K56 ([4]; 72 Hour Treatment, ADMB 1.0 μg/ml): 879 MFI
- Monoclonal Antibody Binding (MFI) MoAb K56 ([4]; 96 Hour Treatment, ADMB 0.01 μg/ml): 827 MFI
- Monoclonal Antibody Binding (MFI) MoAb K56 ([4]; 96 Hour Treatment, ADMB 0.1 μg/ml): 1116 MFI
- Monoclonal Antibody Binding (MFI) MoAb K56 ([4]; 96 Hour Treatment, ADMB 1.0 μg/ml): 1008 MFI
- Monoclonal Antibody Binding (MFI) MoAb K56 ([5]; ADMB 0.01 μg/ml): 2126 MFI
- Monoclonal Antibody Binding (MFI) MoAb K56 ([5]; ADMB 0.1 μg/ml): 1715 MFI
- Monoclonal Antibody Binding (MFI) MoAb K56 ([5]; ADMB 1.0 g/ml): 2420 MFI
- Monoclonal Antibody Binding (MFI) MoAb B67.4 (CA19.9) ([6]; ADMB 0.01 μg/ml): 3562* MFI
- Monoclonal Antibody Binding (MFI) MoAb B67.4 (CA19.9) ([6]; ADMB 0.1 μg/ml): 3473* MFI
- Monoclonal Antibody Binding (MFI) MoAb B67.4 (CA19.9) ([6]; ADMB 1.0 g/ml): 3962* MFI
- most effective dose inducing upregulation of BCA 225, HLA Class II antigens, ICAM-1 and c-erbB-2 [3, 12]: 0.1 µg/mL

B1: IFN-γ: recombinant human immune interferon produced in Escherichia coli (protein, UniProt P01579 24-161, looked up)
Interferon gamma: QDPYVKEAENLKKYFNAGHSDVADNGTLFLGILKNWKEESDRKIMQSQIVSFYFKLFKNFKDDQSIQKSVETIKEDMNVKFFNSNKKKRDDFEKLTNYSVTDLNVQRKAIHELIQVMAELSPAAKTGKRKRSQMLFRG
- ICAM-1 relative increase in expression versus untreated controls (equivalent to 1.0) [2, 8]: 3.5
- Antigenic Expression (MFI) ICAM-1 [2, 9]: 191,490 MFI
- Monoclonal Antibody Binding (MFI) MoAb K56 [4, 10]: 1046* MFI
- Monoclonal Antibody Binding (MFI) MoAb K56 [4, 11]: 1021 MFI
- Monoclonal Antibody Binding (MFI) MoAb K56 ([5]; MEZ 1100 ng/ml, IFN-γ 100 U/ml): 3126* MFI
- Monoclonal Antibody Binding (MFI) MoAb B67.4 (CA19.9) ([6]; MEZ 1100 ng/ml, IFN-γ 100 U/ml): 4970* MFI

B2: IFN-β: recombinant human fibroblast interferon with a serine substituted for a cysteine at position 17 (protein, UniProt P01574 22-187, looked up, variant C17S)
Interferon beta: MSYNLLGFLQRSSNFQSQKLLWQLNGRLEYCLKDRMNFDIPEEIKQLQQFQKEDAALTIYEMLQNIFAIFRQDSSSTGWNETIVENLLANVYHQINHLKTVLEEKLEKEDFTRGKLMSSLHLKRYYGRILHYLKAKEYSHCAWTIVRVEILRNFYFINRLTGYLRN
- ICAM-1 relative increase in expression versus untreated controls (equivalent to 1.0) [2, 8]: 1.8
- Antigenic Expression (MFI) ICAM-1 [2, 9]: 97,013 MFI
